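Where inhibition never reached the appropriate level, the endpoint shown equals the highest concentration tested. Otherwise, values were interpolated linearly from a five-concentration, 48-hour dose response in 96-well plates. TGI denotes the concentration required for complete inhibition of growth.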
Legend:
Experiment in all cases: NCI anticancer screen, dose series, 48 h
786-0 renal = system: 786-0 renal
A498 renal = system: A498 renal
A549 NSCLC = system: A549 NSCLC
ACHN renal = system: ACHN renal
CAKI-1 renal = system: CAKI-1 renal
CCRF-CEM leukemia = system: CCRF-CEM leukemia
COLO 205 colon = system: COLO 205 colon
DLD-1 colon = system: DLD-1 colon
DMS 114 small cell lung = system: DMS 114 small cell lung
EKVX NSCLC = system: EKVX NSCLC
HCC-2998 colon = system: HCC-2998 colon
HCT-116 colon = system: HCT-116 colon
HL-60(TB) leukemia = system: HL-60(TB) leukemia
HOP-62 NSCLC = system: HOP-62 NSCLC
HOP-92 NSCLC = system: HOP-92 NSCLC
HT29 colon = system: HT29 colon
IGROV1 ovarian = system: IGROV1 ovarian
K-562 leukemia = system: K-562 leukemia
KM12 colon = system: KM12 colon
KM20L2 colon = system: KM20L2 colon
LXFL 529 NSCLC = system: LXFL 529 NSCLC
M14 melanoma = system: M14 melanoma
M19-MEL melanoma = system: M19-MEL melanoma
MALME-3M melanoma = system: MALME-3M melanoma
MOLT-4 leukemia = system: MOLT-4 leukemia
NCI-H226 lung = system: NCI-H226 lung
NCI-H23 lung = system: NCI-H23 lung
NCI-H460 lung = system: NCI-H460 lung
NCI-H522 lung = system: NCI-H522 lung
OVCAR-3 ovarian = system: OVCAR-3 ovarian
OVCAR-4 ovarian = system: OVCAR-4 ovarian
OVCAR-5 ovarian = system: OVCAR-5 ovarian
OVCAR-8 ovarian = system: OVCAR-8 ovarian
RPMI-8226 leukemia = system: RPMI-8226 leukemia
SF-268 CNS = system: SF-268 CNS
SF-295 CNS = system: SF-295 CNS
SK-MEL-2 melanoma = system: SK-MEL-2 melanoma
SK-MEL-28 melanoma = system: SK-MEL-28 melanoma
SK-MEL-5 melanoma = system: SK-MEL-5 melanoma
SK-OV-3 ovarian = system: SK-OV-3 ovarian
SN12C renal = system: SN12C renal
SNB-19 CNS = system: SNB-19 CNS
SNB-75 CNS = system: SNB-75 CNS
SNB-78 CNS = system: SNB-78 CNS
SR leukemia = system: SR leukemia
SW-620 colon = system: SW-620 colon
TK-10 renal = system: TK-10 renal
U251 CNS = system: U251 CNS
UACC-257 melanoma = system: UACC-257 melanoma
UACC-62 melanoma = system: UACC-62 melanoma
UO-31 renal = system: UO-31 renal
XF 498 CNS = system: XF 498 CNS

Measured: TGI

O=C1NC(c2ccc(O)cc2)C2CCC1C2 (configuration not stated)
> 100 µM: all assays above
